“And” between values parts separate entries of the source, which are not always exact repeats. Equal entries are not always repeated. Toxic doses and inconclusive results are not listed. Cut-off read from the data, not from the text of the source: active = T/C of 150% or more; inactive = T/C below 125%.
System: L1210 leukemia ip in BDF1 mice, survival T/C
Assay: NCI In Vivo Anticancer Drug Screen. Data for tumor model L1210 Leukemia (intraperitoneal) in B6D2F1 (BDF1) mice
Conditions: endpoint: mean survival time, higher = longer survival
Summary of the method: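 Mice bearing the transplanted tumor received compound or vehicle. Survival of the treated group was divided by that of the vehicle-treated control group to give the ratio.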

[1] = dose: 100.0 mg/kg/injection, schedule: Q04DX003 (ip), vehicle: Klucel (hydroxypropylcellulose) (HPC)

Measured: T/C

N=C(N)c1ccc(Oc2ccc(-c3cc4ccc(C(=N)N)cc4[nH]3)cc2)cc1
inactive: dose: 1.56 mg/kg/injection, schedule: Q01DX009 (ip), vehicle: saline with Tween-80 90 % of control | dose: 3.12 mg/kg/injection, schedule: Q01DX009 (ip), vehicle: saline with Tween-80 106 % of control | dose: 6.25 mg/kg/injection, schedule: Q04DX003 (ip), vehicle: saline 100 % of control (2×) and 112 % of control | dose: 12.5 mg/kg/injection, schedule: Q01DX009 (ip), vehicle: saline with Tween-80 119 % of control | dose: 12.5 mg/kg/injection, schedule: Q04DX003 (ip), vehicle: saline 112 % of control and 120 % of control and 122 % of control | dose: 25.0 mg/kg/injection, schedule: Q04DX003 (ip), vehicle: saline 112 % of control

CCCCCCCc1cc2ccccc2c2c(N)nc(N)nc12
inactive: dose: 12.0 mg/kg/injection, schedule: Q04DX003 (ip), vehicle: Klucel (hydroxypropylcellulose) (HPC) 105 % of control | dose: 25.0 mg/kg/injection, schedule: Q04DX003 (ip), vehicle: Klucel (hydroxypropylcellulose) (HPC) 93 % of control | dose: 50.0 mg/kg/injection, schedule: Q04DX003 (ip), vehicle: Klucel (hydroxypropylcellulose) (HPC) 98 % of control | dose: 100.0 mg/kg/injection, schedule: Q01DX001 (ip), vehicle: Klucel (hydroxypropylcellulose) (HPC) 90 % of control | [1] 107 % of control | dose: 200.0 mg/kg/injection, schedule: Q01DX001 (ip), vehicle: Klucel (hydroxypropylcellulose) (HPC) 96 % of control

OCC1(CO)CCCCC1
inactive: [1] 105 % of control | dose: 200.0 mg/kg/injection, schedule: Q04DX003 (ip), vehicle: Klucel (hydroxypropylcellulose) (HPC) 109 % of control | dose: 400.0 mg/kg/injection, schedule: Q04DX003 (ip), vehicle: Klucel (hydroxypropylcellulose) (HPC) 105 % of control

N#Cc1c(-c2ccc(Cl)cc2)n(O)c2ccccc12
inactive: dose: 100.0 mg/kg/injection, schedule: Q01DX001 (ip), vehicle: saline 96 % of control | dose: 200.0 mg/kg/injection, schedule: Q01DX001 (ip), vehicle: saline 100 % of control | dose: 400.0 mg/kg/injection, schedule: Q01DX001 (ip), vehicle: saline 96 % of control

CCCCC(=O)NC(=O)c1ccccc1
inactive: dose: 100.0 mg/kg/injection, schedule: Q01DX009 (ip), vehicle: saline with Tween-80 96 % of control | dose: 100.0 mg/kg/injection, schedule: Q04DX003 (ip), vehicle: saline with Tween-80 101 % of control | dose: 200.0 mg/kg/injection, schedule: Q01DX009 (ip), vehicle: saline with Tween-80 96 % of control | dose: 200.0 mg/kg/injection, schedule: Q04DX003 (ip), vehicle: saline with Tween-80 92 % of control | dose: 400.0 mg/kg/injection, schedule: Q01DX009 (ip), vehicle: saline with Tween-80 93 % of control | dose: 400.0 mg/kg/injection, schedule: Q04DX003 (ip), vehicle: saline with Tween-80 103 % of control
